# Data from PubChem BioAssay (NCI).
#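 GI50 marks 50% less growth. TGI is the concentration that stops growth completely.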
# Assays:
# Assay in all cases: inhibition of tumour cell growth, NCI panel, 384-well format
# UACC-257 melanoma = test system: UACC-257 melanoma
# SK-MEL-5 melanoma = test system: SK-MEL-5 melanoma
# A549 NSCLC = test system: A549 NSCLC
# SN12C renal = test system: SN12C renal
# MDA-MB-231 breast = test system: MDA-MB-231 breast
# RXF 393 renal = test system: RXF 393 renal
# CCRF-CEM leukemia = test system: CCRF-CEM leukemia
# UACC-62 melanoma = test system: UACC-62 melanoma
# SF-539 CNS = test system: SF-539 CNS
# NCI-H522 lung = test system: NCI-H522 lung
# OVCAR-8 ovarian = test system: OVCAR-8 ovarian
# SW-620 colon = test system: SW-620 colon
# NCI-H23 lung = test system: NCI-H23 lung
# NCI-H226 lung = test system: NCI-H226 lung
# HCT-15 colon = test system: HCT-15 colon
# M14 melanoma = test system: M14 melanoma
# COLO 205 colon = test system: COLO 205 colon
# OVCAR-3 ovarian = test system: OVCAR-3 ovarian
# HOP-92 NSCLC = test system: HOP-92 NSCLC
# SF-295 CNS = test system: SF-295 CNS
# MOLT-4 leukemia = test system: MOLT-4 leukemia
# EKVX NSCLC = test system: EKVX NSCLC
# CAKI-1 renal = test system: CAKI-1 renal
# IGROV1 ovarian = test system: IGROV1 ovarian
# HCC-2998 colon = test system: HCC-2998 colon
# LOX IMVI melanoma = test system: LOX IMVI melanoma
# NCI/ADR-RES ovarian = test system: NCI/ADR-RES ovarian
# HS 578T breast = test system: HS 578T breast
# MDA-MB-435 melanoma = test system: MDA-MB-435 melanoma
# MCF7 breast = test system: MCF7 breast
# PC-3 prostate = test system: PC-3 prostate
# SR leukemia = test system: SR leukemia
# SK-OV-3 ovarian = test system: SK-OV-3 ovarian
# NCI-H322M lung = test system: NCI-H322M lung
# K-562 leukemia = test system: K-562 leukemia
# SK-MEL-28 melanoma = test system: SK-MEL-28 melanoma
# BT-549 breast = test system: BT-549 breast
# SNB-19 CNS = test system: SNB-19 CNS
# MALME-3M melanoma = test system: MALME-3M melanoma
# HCT-116 colon = test system: HCT-116 colon
# U251 glioblastoma = test system: U251 glioblastoma
# SF-268 CNS = test system: SF-268 CNS
# T-47D breast = test system: T-47D breast
# HOP-62 NSCLC = test system: HOP-62 NSCLC
# DU-145 prostate = test system: DU-145 prostate
# UO-31 renal = test system: UO-31 renal
# MDA-MB-468 breast = test system: MDA-MB-468 breast
# 786-0 renal = test system: 786-0 renal
# HL-60(TB) leukemia = test system: HL-60(TB) leukemia
# ACHN renal = test system: ACHN renal
# RPMI-8226 leukemia = test system: RPMI-8226 leukemia
# TK-10 renal = test system: TK-10 renal
# OVCAR-4 ovarian = test system: OVCAR-4 ovarian
# SNB-75 CNS = test system: SNB-75 CNS
# HT29 colon = test system: HT29 colon
# KM12 colon = test system: KM12 colon
# A498 renal = test system: A498 renal
# NCI-H460 NSCLC = test system: NCI-H460 NSCLC
smiles,measurement,setting,value
COc1cc2ncnc(Nc3cccc(Cl)c3F)c2cc1OC(=O)N1CCN(C)C[C@H]1C,GI50,UACC-257 melanoma,17.5 µM
same,TGI,UACC-257 melanoma,31.5 µM
same,GI50,SK-MEL-5 melanoma,11.5 µM
same,TGI,SK-MEL-5 melanoma,24.9 µM
same,GI50,A549 NSCLC,12.3 µM
same,TGI,A549 NSCLC,43.1 µM
same,GI50,SN12C renal,2.69 µM
same,TGI,SN12C renal,27.6 µM
same,GI50,MDA-MB-231 breast,14.7 µM
same,TGI,MDA-MB-231 breast,38.4 µM
same,GI50,RXF 393 renal,14.1 µM
same,TGI,RXF 393 renal,29.2 µM
same,GI50,CCRF-CEM leukemia,20.1 µM
same,TGI,CCRF-CEM leukemia,49.2 µM
same,GI50,UACC-62 melanoma,14.2 µM
same,TGI,UACC-62 melanoma,28.1 µM
same,GI50,SF-539 CNS,16.7 µM
same,TGI,SF-539 CNS,32.5 µM
same,GI50,NCI-H522 lung,0.851 µM
same,TGI,NCI-H522 lung,17.5 µM
same,GI50,OVCAR-8 ovarian,15.3 µM
same,TGI,OVCAR-8 ovarian,49.2 µM
same,GI50,SW-620 colon,20.3 µM
same,TGI,SW-620 colon,38.2 µM
same,GI50,NCI-H23 lung,16.4 µM
same,TGI,NCI-H23 lung,41.7 µM
same,GI50,NCI-H226 lung,11.7 µM
same,TGI,NCI-H226 lung,33.8 µM
same,GI50,HCT-15 colon,13.9 µM
same,TGI,HCT-15 colon,29.2 µM
same,GI50,M14 melanoma,16.4 µM
same,TGI,M14 melanoma,30.7 µM
same,GI50,COLO 205 colon,22.4 µM
same,TGI,COLO 205 colon,54 µM
same,GI50,OVCAR-3 ovarian,4.35 µM
same,TGI,OVCAR-3 ovarian,24.3 µM
same,GI50,HOP-92 NSCLC,13.4 µM
same,TGI,HOP-92 NSCLC,28.5 µM
same,GI50,SF-295 CNS,16.3 µM
same,TGI,SF-295 CNS,31.4 µM
same,GI50,MOLT-4 leukemia,14.2 µM
same,TGI,MOLT-4 leukemia,28.1 µM
same,GI50,EKVX NSCLC,0.304 µM
same,TGI,EKVX NSCLC,16.7 µM
same,GI50,CAKI-1 renal,2.3 µM
same,TGI,CAKI-1 renal,20.4 µM
same,GI50,IGROV1 ovarian,0.241 µM
same,TGI,IGROV1 ovarian,11.9 µM
same,GI50,HCC-2998 colon,17.3 µM
same,TGI,HCC-2998 colon,32.4 µM
same,GI50,LOX IMVI melanoma,16.3 µM
same,TGI,LOX IMVI melanoma,30.5 µM
same,GI50,NCI/ADR-RES ovarian,18 µM
same,TGI,NCI/ADR-RES ovarian,64.2 µM
same,GI50,HS 578T breast,15.2 µM
same,TGI,HS 578T breast,29.6 µM
same,GI50,MDA-MB-435 melanoma,22.6 µM
same,TGI,MDA-MB-435 melanoma,55.8 µM
same,GI50,MCF7 breast,19.8 µM
same,TGI,MCF7 breast,87.4 µM
same,GI50,PC-3 prostate,15.6 µM
same,TGI,PC-3 prostate,49.8 µM
same,GI50,SR leukemia,10.8 µM
same,TGI,SR leukemia,23.6 µM
same,GI50,SK-OV-3 ovarian,3.46 µM
same,TGI,SK-OV-3 ovarian,22.7 µM
same,GI50,NCI-H322M lung,0.144 µM
same,TGI,NCI-H322M lung,10.8 µM
same,GI50,K-562 leukemia,5.49 µM
same,TGI,K-562 leukemia,17.8 µM
same,GI50,SK-MEL-28 melanoma,14.6 µM
same,TGI,SK-MEL-28 melanoma,28 µM
same,GI50,BT-549 breast,20.3 µM
same,TGI,BT-549 breast,46.5 µM
same,GI50,SNB-19 CNS,27.7 µM
same,TGI,SNB-19 CNS,> 100 µM
same,GI50,MALME-3M melanoma,15.1 µM
same,TGI,MALME-3M melanoma,28.8 µM
same,GI50,HCT-116 colon,16.9 µM
same,TGI,HCT-116 colon,32.8 µM
same,GI50,U251 glioblastoma,20.2 µM
same,TGI,U251 glioblastoma,48 µM
same,GI50,SF-268 CNS,18.8 µM
same,TGI,SF-268 CNS,54 µM
same,GI50,T-47D breast,9.89 µM
same,TGI,T-47D breast,40.9 µM
same,GI50,HOP-62 NSCLC,17.6 µM
same,TGI,HOP-62 NSCLC,42 µM
same,GI50,DU-145 prostate,13.5 µM
same,TGI,DU-145 prostate,58.2 µM
same,GI50,UO-31 renal,6.94 µM
same,TGI,UO-31 renal,27.9 µM
same,GI50,MDA-MB-468 breast,0.128 µM
same,TGI,MDA-MB-468 breast,0.446 µM
same,GI50,786-0 renal,14.4 µM
same,TGI,786-0 renal,29 µM
same,GI50,HL-60(TB) leukemia,16.5 µM
same,TGI,HL-60(TB) leukemia,30.2 µM
same,GI50,ACHN renal,0.427 µM
same,TGI,ACHN renal,20.7 µM
same,GI50,RPMI-8226 leukemia,14.6 µM
same,TGI,RPMI-8226 leukemia,30.9 µM
same,GI50,TK-10 renal,0.573 µM
same,TGI,TK-10 renal,21.3 µM
same,GI50,OVCAR-4 ovarian,18.5 µM
same,TGI,OVCAR-4 ovarian,51.5 µM
same,GI50,SNB-75 CNS,17.6 µM
same,TGI,SNB-75 CNS,47.1 µM
same,GI50,HT29 colon,14.4 µM
same,TGI,HT29 colon,31.2 µM
same,GI50,KM12 colon,20.1 µM
same,TGI,KM12 colon,41.4 µM
same,GI50,A498 renal,17 µM
same,TGI,A498 renal,42.5 µM
same,GI50,NCI-H460 NSCLC,19.9 µM
same,TGI,NCI-H460 NSCLC,44.2 µM
